Read-outs that look alike come from different tables or passages of the source.
How the values were obtained:
Assay in all cases: growth of strains streaked on Sabouraud agar containing the products
Type in all cases: cell-based
[1] = system: Trichophyton interdigitale; conditions: Tric.Interdigitale, read-out: inhibition de la croissance
Description: (§1) Ces molécules ont été incorporées dans un milieu gélosé dit de Sabouraud (peptone 10g/l, glucose 10 g/l, gomme agar 15 g/l).
(§2) Des souches de diverses espèces de champignons ont été ensemencées par stries par la méthode de Stires.
(§3) Le pourcentage de croissance a été mesuré au cours du temps, pour des périodes allant jusqu'à 21 jours, pour certaines des souches testées.
(§4) Les quantités de pipéronyl butoxyde, et de cyclopyroxolamine utilisées sont identiques et sont de 10 ou 20 µg/ml dans le cas de l'association entre ces deux composés.
(§5) Dans le cas de l'association entre le pipéronyl butoxyde et l'éconazole, elles sont respectivement de 10 ou 20 µg/ml de pipéronyl butoxyde et de 1 µg/ml d'éconazole.
(§6) Des souches appartenant aux espèces suivantes ont été testées: Microsporum canis, Trichophyton rubrum, Trichophyton interdigitale, Trichophyton mentagrophytes, Microsporum persicolor, Epidermophyton floccosum, Trichophyton violaceum et Trichophyton soudanense.
(§7) L'activité du pipéronyl butoxyde seul a été testée à diverses concentrations, comme indiqué dans le tableau 1 sur le milieu de Sabouraud, dépourvu de tout autre fongicide.

[2] = system: Trichophyton mentagrophytes; conditions: Tric.Mentagophytes; for activity at 20 µg/mL: read-out: % DE CROISSANCE; for inhibition at 2 µg/mL / inhibition at 10 µg/mL / inhibition at 20 µg/mL / inhibition at 50 µg/mL: read-out: inhibition de la croissance
Description: as §1, §2, §3, §4, §5, §6, §7

Trichophyton rubrum = conditions: Tric.Rubrum; for activity at 20 µg/mL: read-out: % DE CROISSANCE; for inhibition at 2 µg/mL / inhibition at 10 µg/mL / inhibition at 20 µg/mL / inhibition at 50 µg/mL: read-out: inhibition de la croissance
Description: as §1, §2, §3, §4, §5, §6, §7

Trichophyton soudanense = conditions: Tric.Soudanese; for activity at 10 µg/mL: read-out: % DE CROISSANCE; for inhibition at 2 µg/mL / inhibition at 10 µg/mL / inhibition at 20 µg/mL / inhibition at 50 µg/mL: read-out: inhibition de la croissance
Description: as §1, §2, §3, §4, §5, §6, §7

[3] = 144 h, J6, 20µg/ml each product
[4] = 240 h, J10, 20µg/ml each product
[5] = 336 h, J14, 20µg/ml each product

SMILES: CCCCOCCOCCOCc1cc2c(cc1CCC)OCO2 [Piperonyl., pipéronyl butoxyde]
- inhibition at 50 µg/mL ([1]; J+4, 50 µg/ml): 0%
- inhibition at 2 µg/mL ([1]; J+10, 2 µg/ml): 80%
- inhibition at 10 µg/mL ([1]; J+10, 10 µg/ml): 70%
- inhibition at 20 µg/mL ([1]; J+10, 20 µg/ml): 60%
- inhibition at 50 µg/mL ([1]; J+10, 50 µg/ml): 0%
- inhibition at 2 µg/mL ([1]; J+14, 2 µg/ml): 100%
- inhibition at 10 µg/mL ([1]; J+14, 10 µg/ml): 80%
- inhibition at 20 µg/mL ([1]; J+14, 20 µg/ml): 70%
- inhibition at 50 µg/mL ([1]; J+14, 50 µg/ml): 0%
- activity at 20 µg/mL ([2]; 0 h, J0, 20µg/ml each product): 0%
- activity at 20 µg/mL ([2]; 96 h, J4, 20µg/ml each product): 0%
- activity at 20 µg/mL [2, 3]: 25%
- activity at 20 µg/mL [2, 4]: 60%
- activity at 20 µg/mL [2, 5]: 65%
- inhibition at 2 µg/mL ([2]; J+4, 2 µg/ml): 30%
- inhibition at 10 µg/mL ([2]; J+4, 10 µg/ml): 10%
- inhibition at 20 µg/mL ([2]; J+4, 20 µg/ml): 0%
- inhibition at 50 µg/mL ([2]; J+4, 50 µg/ml): 0%
- inhibition at 2 µg/mL ([2]; J+10, 2 µg/ml): 80%
- inhibition at 10 µg/mL ([2]; J+10, 10 µg/ml): 60%
- inhibition at 20 µg/mL ([2]; J+10, 20 µg/ml): 60%
- inhibition at 50 µg/mL ([2]; J+10, 50 µg/ml): 0%
- inhibition at 2 µg/mL ([2]; J+14, 2 µg/ml): 100%
- inhibition at 10 µg/mL ([2]; J+14, 10 µg/ml): 70%
- inhibition at 20 µg/mL ([2]; J+14, 20 µg/ml): 65%
- inhibition at 50 µg/mL ([2]; J+14, 50 µg/ml): 0%
- activity at 20 µg/mL (Trichophyton rubrum; 0 h, J0, 20µg/ml each product): 0%
- activity at 20 µg/mL (Trichophyton rubrum; 96 h, J4, 20µg/ml each product): 0%
- activity at 20 µg/mL (Trichophyton rubrum; [3]): 20%
- activity at 20 µg/mL (Trichophyton rubrum; [4]): 35%
- activity at 20 µg/mL (Trichophyton rubrum; [5]): 50%
- inhibition at 2 µg/mL (Trichophyton rubrum; J+4, 2 µg/ml): 15%
- inhibition at 10 µg/mL (Trichophyton rubrum; J+4, 10 µg/ml): 10%
- inhibition at 20 µg/mL (Trichophyton rubrum; J+4, 20 µg/ml): 0%
- inhibition at 50 µg/mL (Trichophyton rubrum; J+4, 50 µg/ml): 0%
- inhibition at 2 µg/mL (Trichophyton rubrum; J+10, 2 µg/ml): 90%
- inhibition at 10 µg/mL (Trichophyton rubrum; J+10, 10 µg/ml): 60%
- inhibition at 20 µg/mL (Trichophyton rubrum; J+10, 20 µg/ml): 35%
- inhibition at 50 µg/mL (Trichophyton rubrum; J+10, 50 µg/ml): 0%
- inhibition at 2 µg/mL (Trichophyton rubrum; J+14, 2 µg/ml): 100%
- inhibition at 10 µg/mL (Trichophyton rubrum; J+14, 10 µg/ml): 75%
- inhibition at 20 µg/mL (Trichophyton rubrum; J+14, 20 µg/ml): 50%
- inhibition at 50 µg/mL (Trichophyton rubrum; J+14, 50 µg/ml): 0%
- activity at 10 µg/mL (Trichophyton soudanense; 0 h, J0, 10µg/ml each product): 0%
- activity at 10 µg/mL (Trichophyton soudanense; 96 h, J4, 10µg/ml each product): 0%
- activity at 10 µg/mL (Trichophyton soudanense; 144 h, J6, 10µg/ml each product): 10%
- activity at 10 µg/mL (Trichophyton soudanense; 240 h, J10, 10µg/ml each product): 10%
- activity at 10 µg/mL (Trichophyton soudanense; 336 h, J14, 10µg/ml each product): 25%
- inhibition at 2 µg/mL (Trichophyton soudanense; J+4, 2 µg/ml): 25%
- inhibition at 10 µg/mL (Trichophyton soudanense; J+4, 10 µg/ml): 0%
- inhibition at 20 µg/mL (Trichophyton soudanense; J+4, 20 µg/ml): 0%
- inhibition at 50 µg/mL (Trichophyton soudanense; J+4, 50 µg/ml): 0%
- inhibition at 2 µg/mL (Trichophyton soudanense; J+10, 2 µg/ml): 80%
- inhibition at 10 µg/mL (Trichophyton soudanense; J+10, 10 µg/ml): 10%
- inhibition at 20 µg/mL (Trichophyton soudanense; J+10, 20 µg/ml): 0%
- inhibition at 50 µg/mL (Trichophyton soudanense; J+10, 50 µg/ml): 0%
- inhibition at 2 µg/mL (Trichophyton soudanense; J+14, 2 µg/ml): 100%
- inhibition at 10 µg/mL (Trichophyton soudanense; J+14, 10 µg/ml): 25%
- inhibition at 20 µg/mL (Trichophyton soudanense; J+14, 20 µg/ml): 0%
- inhibition at 50 µg/mL (Trichophyton soudanense; J+14, 50 µg/ml): 0%
